From publication PMC5702617, “Novel peptide probes to assess the tensional state of fibronectin fibers in cancer” (Nature Communications, 2017)
Where “and” joins values, the source holds several entries; their conditions need not be identical. Equal entries are not always repeated. Residues, ends and D or L forms follow the SMILES beside them. *: point of attachment. X1 = O=C(O)CN1CCN(CC(=O)O)CCN(C(CCC(=O)NCCN2C(=O)CC(*)C2=O)C(=O)O)CC1

Assays:
[1] = Biodistribution in PC-3 tumor grafted mice; format: in vivo, mouse; conditions: female, CD1 nude, mouse, in vivo, iv, total radioactivity; 1 h p.i.; PC-3 grafted mice, i.v. 150 kBq (2.4 nmol, 100 µL PBS), γ counter, mean ± SD, n = 4; read-out: Biodistribution, Kidneys
Protocol: (§1) Experiments were performed 3–4 weeks after inoculation.
(§2) For the biodistribution experiments, PC-3 tumor grafted mice were injected into the tail vein with 150 kBq ^111In-FnBPA5 or ^111In-scrambled FnBPA5 (2.4 nmol, 100 µL PBS). For each peptide, groups of four mice were sacrificed at 1, 4, 24, and 96 h post injection. Blocking experiment (n = 4) was performed by injection of an excess of peptide (100 µg, 24 nmol in 100 µL PBS) directly before the administration of the corresponding radiolabeled peptide. The organs were collected, weighed and counted for activity with a γ counter (Packard Cobra II Auto, Gamma, PerkinElmer AG, Schwerzenbach, Switzerland) 4 h p.i. The results were expressed as a percentage of injected activity per gram of tissue (% IA per g tissue). The Student's t test analyses were considered as type 3 (two sample unequal variance) and statistical significance was assumed for p-values smaller than 0.05.

PC-3-bearing mice [2] = test: Biodistribution in PC-3 tumor grafted mice; format: in vivo, mouse; conditions: PC-3 grafted mice, i.v. 150 kBq (2.4 nmol, 100 µL PBS), γ counter, mean ± SD, n = 4
Protocol: as §1, §2

[3] = In vitro plasma stability; format: in vitro ADME, human; conditions: 37°C, 1 hour time point, RP-HPLC, means from three experiments
Protocol: The stability of peptides in blood is often limited as they are rapidly cleaved by catalytic enzymes found in tissue and blood, resulting in a short biological half-life. […] To verify whether the FnBPA5 peptide can be used for in vivo applications, we next performed a plasma stability test. The metabolic stability of the peptide radiotracer ^111In-FnBPA5 was tested in vitro by incubating the radiolabeled FnBPA5 at 37°C with human blood plasma, or water as control. The unbound peptide fraction was separated from the plasma proteins at different time points (0, 1, 24, 48, and 72 h) and was analyzed by reversed-phase high-pressure liquid chromatography (RP-HPLC).
After that, the samples were filtrated using a Thomson Single StEP Filter vial 0.45 μm PVDF (Thomson Instrument Company, Oceanside, USA) and the supernatant was analyzed by reversed-phase HPLC (Varian Prostar HPLC System, SpectraLab Scientific Inc., Canada) using a D-Bio Discovery Wide Pore C18 column (25 cm × 4.6 mm; 5 μm).

PC-3-bearing mice [4] = test: In vivo blocking experiment in PC-3 tumor grafted mice; design: species or system mouse; conditions: n = 4
Protocol: as §2

PC-3-bearing mice [5] = test: SPECT/CT imaging of PC-3-bearing mice; format: in vivo, mouse
Protocol: Thirty-three days from the inoculation of the tumor cells, the mice were intravenously injected with ~15 MBq ^111In-FnBPA5 resp. ^111In-scrambled FnBPA5-NODAGA (2.4 nmol, 100 µL PBS) into the tail vein. […] The images were reconstituted and processed with InVivoScope® software (Bioscan Inc., Washington DC, USA).

[6] = biological target: fibronectin N-terminal fragments (Homo sapiens) (UniProt P02751); conditions: cited from earlier work
fibronectin N-terminal fragments (Homo sapiens), sequence (P02751 50-273): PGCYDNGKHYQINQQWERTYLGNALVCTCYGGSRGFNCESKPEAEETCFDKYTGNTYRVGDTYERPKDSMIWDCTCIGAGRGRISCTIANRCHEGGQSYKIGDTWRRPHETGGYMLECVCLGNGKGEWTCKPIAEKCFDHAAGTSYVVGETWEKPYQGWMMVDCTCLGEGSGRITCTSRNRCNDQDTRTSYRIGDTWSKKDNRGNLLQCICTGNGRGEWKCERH

[7] = 4h p.i. blocking: corresponding unlabeled peptide (24 nmol) i.v. directly before the radiolabeled peptide, PC-3 grafted mice, mean ± SD

FnBPA5, sequence (P14738 636-672): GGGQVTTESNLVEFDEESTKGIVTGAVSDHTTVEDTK

CC[C@H](C)[C@H](NC(=O)[C@@H](NC(=O)[C@H](CCC(=O)O)NC(=O)CNC(=O)[C@H](Cc1ccccc1)NC(=O)[C@H](CC(=O)O)NC(=O)[C@@H](NC(=O)[C@H](CCCCN)NC(=O)[C@@H](NC(=O)CNC(=O)[C@@H](NC(=O)[C@H](CC(C)C)NC(=O)[C@H](CC(=O)O)NC(=O)[C@H](CCC(=O)O)NC(=O)[C@H](CCC(N)=O)NC(=O)[C@H](CCC(=O)O)NC(=O)[C@H](CO)NC(=O)CNC(=O)[C@@H](N)CSC1CC(=O)N(CCNC(=O)CCC(C(=O)O)N2CCN(CC(=O)O)CCN(CC(=O)O)CC2)C1=O)[C@@H](C)O)[C@@H](C)O)C(C)C)[C@@H](C)O)C(=O)N[C@H](C(=O)N[C@H](C(=O)N[C@@H](CC(N)=O)C(=O)N[C@@H](CCC(=O)O)C(=O)N[C@@H](C)C(=O)N[C@H](C(=O)N[C@@H](CCC(=O)O)C(=O)N[C@H](C(=O)N[C@H](C(=O)N[C@H](C(=O)N[C@@H](CO)C(=O)NCC(=O)N[C@@H](CO)C(=O)N[C@H](C(=O)N[C@@H](Cc1c[nH]cn1)C(=O)NCC(=O)N[C@H](C(=O)N[C@@H](CCCCN)C(=O)N[C@H](C(=O)O)C(C)C)[C@@H](C)O)[C@@H](C)O)[C@@H](C)O)C(C)C)[C@@H](C)O)[C@@H](C)O)C(C)C)C(C)C (stereo partly shown) [111In-scrambled FnBPA5, metal not drawn] (H-C(X1)GSEQEDLTGTKVDFGETIVVNEATETVTSGSTHGTKV-OH; N-terminus and C-terminus assumed)
tissue uptake at 1 h [1]: 163 ± 18 %ID/g
Biodistribution, Blood (PC-3-bearing mice [2]; 1 h p.i.): 0.26 ± 0.064 IA% / g
Biodistribution, Bone (PC-3-bearing mice [2]; 1 h p.i.): 0.15 ± 0.035 IA% / g
Biodistribution, Heart (PC-3-bearing mice [2]; 1 h p.i.): 0.12 ± 0.03 IA% / g
Biodistribution, Intestines (PC-3-bearing mice [2]; 1 h p.i.): 0.09 ± 0.01 IA% / g
Biodistribution, Kidneys (PC-3-bearing mice [2]; 1 h p.i.): 163.70 ± 18.90 IA% / g
Biodistribution, Liver (PC-3-bearing mice [2]; 1 h p.i.): 0.10 ± 0.02 IA% / g
Biodistribution, Lung (PC-3-bearing mice [2]; 1 h p.i.): 0.19 ± 0.03 IA% / g
Biodistribution, Muscle (PC-3-bearing mice [2]; 1 h p.i.): 0.09 ± 0.025 IA% / g
Biodistribution, Pancreas (PC-3-bearing mice [2]; 1 h p.i.): 0.78 ± 0.295 IA% / g
Biodistribution, Spleen (PC-3-bearing mice [2]; 1 h p.i.): 0.21 ± 0.039 IA% / g
Biodistribution, Stomach (PC-3-bearing mice [2]; 1 h p.i.): 0.12 ± 0.013 IA% / g
Biodistribution, Tumor (PC-3-bearing mice [2]; 1 h p.i.): 0.27 ± 0.08 IA% / g
Biodistribution, Blood (PC-3-bearing mice [2]; 4 h p.i.): 0.07 ± 0.008 IA% / g and 0.07 ± 0.01 IA% / g
Biodistribution, Bone (PC-3-bearing mice [2]; 4 h p.i.): 0.10 ± 0.01 IA% / g
Biodistribution, Heart (PC-3-bearing mice [2]; 4 h p.i.): 0.06 ± 0.006 IA% / g
Biodistribution, Intestines (PC-3-bearing mice [2]; 4 h p.i.): 0.04 ± 0.012 IA% / g and 0.04 ± 0.01 IA% / g
Biodistribution, Kidneys (PC-3-bearing mice [2]; 4 h p.i.): 151.43 ± 9.056 IA% / g and 151.43 ± 9.06 IA% / g
Biodistribution, Liver (PC-3-bearing mice [2]; 4 h p.i.): 0.08 ± 0.026 IA% / g and 0.08 ± 0.03 IA% / g
Biodistribution, Lung (PC-3-bearing mice [2]; 4 h p.i.): 0.08 ± 0.005 IA% / g and 0.08 ± 0.01 IA% / g
Biodistribution, Muscle (PC-3-bearing mice [2]; 4 h p.i.): 0.04 ± 0.019 IA% / g and 0.04 ± 0.02 IA% / g
Biodistribution, Pancreas (PC-3-bearing mice [2]; 4 h p.i.): 0.64 ± 0.549 IA% / g and 0.64 ± 0.55 IA% / g
Biodistribution, Spleen (PC-3-bearing mice [2]; 4 h p.i.): 0.13 ± 0.036 IA% / g and 0.13 ± 0.03 IA% / g
Biodistribution, Stomach (PC-3-bearing mice [2]; 4 h p.i.): 0.06 ± 0.006 IA% / g
Biodistribution, Tumor (PC-3-bearing mice [2]; 4 h p.i.): 0.14 ± 0.02 IA% / g
Biodistribution, Blood (PC-3-bearing mice [2]; 24 h p.i.): 0.04 ± 0.005 IA% / g
Biodistribution, Bone (PC-3-bearing mice [2]; 24 h p.i.): 0.09 ± 0.021 IA% / g
Biodistribution, Heart (PC-3-bearing mice [2]; 24 h p.i.): 0.04 ± 0.005 IA% / g
Biodistribution, Intestines (PC-3-bearing mice [2]; 24 h p.i.): 0.03 ± 0.00 IA% / g
Biodistribution, Kidneys (PC-3-bearing mice [2]; 24 h p.i.): 104.62 ± 9.412 IA% / g
Biodistribution, Liver (PC-3-bearing mice [2]; 24 h p.i.): 0.07 ± 0.010 IA% / g
Biodistribution, Lung (PC-3-bearing mice [2]; 24 h p.i.): 0.05 ± 0.006 IA% / g
Biodistribution, Muscle (PC-3-bearing mice [2]; 24 h p.i.): 0.08 ± 0.026 IA% / g
Biodistribution, Pancreas (PC-3-bearing mice [2]; 24 h p.i.): 0.21 ± 0.162 IA% / g
Biodistribution, Spleen (PC-3-bearing mice [2]; 24 h p.i.): 0.14 ± 0.048 IA% / g
Biodistribution, Stomach (PC-3-bearing mice [2]; 24 h p.i.): 0.04 ± 0.017 IA% / g
Biodistribution, Tumor (PC-3-bearing mice [2]; 24 h p.i.): 0.09 ± 0.01 IA% / g
Biodistribution, Blood (PC-3-bearing mice [2]; 96 h p.i.): 0.02 ± 0.005 IA% / g
Biodistribution, Bone (PC-3-bearing mice [2]; 96 h p.i.): 0.13 ± 0.036 IA% / g
Biodistribution, Heart (PC-3-bearing mice [2]; 96 h p.i.): 0.04 ± 0.005 IA% / g
Biodistribution, Intestines (PC-3-bearing mice [2]; 96 h p.i.): 0.02 ± 0.010 IA% / g
Biodistribution, Kidneys (PC-3-bearing mice [2]; 96 h p.i.): 23.63 ± 9.883 IA% / g
Biodistribution, Liver (PC-3-bearing mice [2]; 96 h p.i.): 0.05 ± 0.005 IA% / g
Biodistribution, Lung (PC-3-bearing mice [2]; 96 h p.i.): 0.04 ± 0.014 IA% / g
Biodistribution, Muscle (PC-3-bearing mice [2]; 96 h p.i.): 0.04 ± 0.013 IA% / g
Biodistribution, Pancreas (PC-3-bearing mice [2]; 96 h p.i.): 0.06 ± 0.016 IA% / g
Biodistribution, Spleen (PC-3-bearing mice [2]; 96 h p.i.): 0.10 ± 0.029 IA% / g
Biodistribution, Stomach (PC-3-bearing mice [2]; 96 h p.i.): 0.04 ± 0.029 IA% / g
Biodistribution, Tumor (PC-3-bearing mice [2]; 96 h p.i.): 0.16 ± 0.08 IA% / g
stability in human blood plasma [3]: high stability
effect of pre-injection of unlabeled peptide on accumulation (PC-3-bearing mice [4]; 24 nmol unlabeled peptide pre-injected, 4 h p.i., Student's t test): no significant differences
Biodistribution with blocking, Blood (PC-3-bearing mice [4]; [7]): 0.07 ± 0.01 IA% / g
Biodistribution with blocking, Intestines (PC-3-bearing mice [4]; [7]): 0.07 ± 0.05 IA% / g
Biodistribution with blocking, Kidneys (PC-3-bearing mice [4]; [7]): 128.81 ± 17.44 IA% / g
Biodistribution with blocking, Liver (PC-3-bearing mice [4]; [7]): 0.08 ± 0.01 IA% / g
Biodistribution with blocking, Lung (PC-3-bearing mice [4]; [7]): 0.10 ±0.03 IA% / g
Biodistribution with blocking, Muscle (PC-3-bearing mice [4]; [7]): 0.04 ± 0.00 IA% / g
Biodistribution with blocking, Pancreas (PC-3-bearing mice [4]; [7]): 1.41 ±1.25 IA% / g
Biodistribution with blocking, Spleen (PC-3-bearing mice [4]; [7]): 0.18 ± 0.03 IA% / g
Biodistribution with blocking, Stomach (PC-3-bearing mice [4]; [7]): 0.08 ± 0.04 IA% / g
Biodistribution with blocking, Tumor (PC-3-bearing mice [4]; [7]): 0.14 ± 0.04 IA% / g
SPECT/CT distribution (PC-3-bearing mice [5]; ~15 MBq (2.4 nmol, 100 µL PBS) i.v., up to 96 h p.i.): mainly accumulated in the kidneys
SPECT/CT distribution after kidney removal (PC-3-bearing mice [5]; ~15 MBq i.v., 96 h p.i., post mortem, kidneys removed): no uptake was visible

FnBPA5 (from UniProt P14738)
Kd [6]: 44.2 nM
